Measurements reported in article PMC12857768 (Journal of medicinal chemistry, 2024).
Entries after “also recorded” stand apart in the source; their conditions may differ.

Legend:
skin lesions = test: Skin lesions / adverse side effects in mice during the in vivo study; parameters: species or system C57BL/6 female mice; conditions: 10 mg/kg oral gavage 5 times per week
Pyk2 kinase = Pyk2 kinase (Homo sapiens, UniProt Q14289); test: Pyk2 kinase activity assay; format: biochemical; conditions: for Pyk2 kinase inhibitory effect (in words): kinase inhibitory assay
[1] = tested on: circulating organ toxicity biomarkers; test: In vivo toxicity: circulating markers of organ toxicities; parameters: species or system mice; conditions: serum/plasma at end of study, 10 mg/kg oral gavage, N = 9-10
GC-induced bone loss = conditions: murine model of GC excess; previous studies; cited from earlier work

Pyk2 kinase, sequence (Q14289 whole entry): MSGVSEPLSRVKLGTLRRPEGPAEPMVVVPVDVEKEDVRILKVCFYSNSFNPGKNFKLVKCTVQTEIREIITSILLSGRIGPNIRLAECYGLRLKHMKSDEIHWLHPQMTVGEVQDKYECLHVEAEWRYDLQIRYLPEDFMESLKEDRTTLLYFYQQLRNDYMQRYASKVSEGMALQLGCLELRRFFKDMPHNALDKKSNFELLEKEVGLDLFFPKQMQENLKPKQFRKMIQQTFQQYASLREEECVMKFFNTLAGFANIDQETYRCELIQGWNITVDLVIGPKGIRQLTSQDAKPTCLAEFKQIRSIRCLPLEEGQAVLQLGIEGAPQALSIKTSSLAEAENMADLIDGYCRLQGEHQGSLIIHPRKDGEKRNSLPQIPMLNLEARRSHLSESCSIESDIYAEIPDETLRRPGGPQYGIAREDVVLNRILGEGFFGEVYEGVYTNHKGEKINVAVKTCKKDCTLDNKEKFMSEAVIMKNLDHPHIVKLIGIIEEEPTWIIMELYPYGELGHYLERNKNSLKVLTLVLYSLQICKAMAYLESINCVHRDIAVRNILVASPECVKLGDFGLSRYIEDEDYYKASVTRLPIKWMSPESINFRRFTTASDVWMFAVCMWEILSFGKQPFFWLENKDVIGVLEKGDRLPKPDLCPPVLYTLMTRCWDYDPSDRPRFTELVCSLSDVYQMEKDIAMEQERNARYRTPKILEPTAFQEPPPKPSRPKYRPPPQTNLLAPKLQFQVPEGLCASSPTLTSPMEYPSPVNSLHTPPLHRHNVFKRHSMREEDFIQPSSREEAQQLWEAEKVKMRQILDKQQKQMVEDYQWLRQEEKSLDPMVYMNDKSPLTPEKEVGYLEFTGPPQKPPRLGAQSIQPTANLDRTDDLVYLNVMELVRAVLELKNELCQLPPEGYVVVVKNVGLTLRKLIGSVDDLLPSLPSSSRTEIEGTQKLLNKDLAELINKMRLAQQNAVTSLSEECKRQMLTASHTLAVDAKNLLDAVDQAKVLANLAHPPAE

CNC(=O)c1ccccc1Nc1nc(Nc2ccc(N3CCC(OC(=O)CCCCC(=O)NCCCC(O)(P(=O)(O)O)P(=O)(O)O)CC3)cc2OC)ncc1Cl [BT-Ester, (4-(6-((1-(4-((5-Chloro-4-((2-(methylcarbamoyl)phenyl)amino)pyrimidin-2-yl)amino)-3-methoxyphenyl)piperidin-4-yl)oxy)-6-oxohexanamido)-1-hydroxybutane-1,1-diyl)bis(phosphonic Acid)]
Skin lesions / adverse side effects (in words) (skin lesions): did not develop skin lesions
IC50 (Pyk2 kinase): 119 ± 41 nM
Pyk2 kinase inhibitory effect (in words) (Pyk2 kinase): low inhibition
Circulating organ toxicity biomarkers vs control groups [1]: None of the markers were significantly elevated above control levels

CN(c1ccccc1CNc1nc(Nc2ccc3c(c2)CC(=O)N3)ncc1C(F)(F)F)S(C)(=O)=O [PF-431396]
Prevention of GC-induced bone loss (GC-induced bone loss): prevents GC-induced bone loss

CNC(=O)c1ccccc1Nc1nc(Nc2ccc(NC(=O)CCCCC(=O)NCCCC(O)(P(=O)(O)O)P(=O)(O)O)cc2OC)ncc1Cl [BT-Amide, (4-(6-((4-((5-Chloro-4-((2-(methylcarbamoyl)phenyl)amino)pyrimidin-2-yl)amino)-3-methoxyphenyl)amino)-6-oxohexanamido)-1-hydroxybutane-1,1-diyl)bis(phosphonic Acid)]
Skin lesions / adverse side effects (in words) (skin lesions): no adverse side effects were observed
Pyk2 kinase inhibitory effect (in words) (Pyk2 kinase): moderate inhibitory effects
Circulating organ toxicity biomarkers vs control groups ([1]; 10 mg/kg): no significant difference; also recorded: None of the markers were significantly elevated above control levels
